Reference: patent EP4722209A1 (Beijing Shenogen Pharma Group, priority 2023, dated 2024)

Biological target: T1, ERα (Homo sapiens, UniProt P03372)
T1 construct: host or cells: MCF-7
T1 sequence (P03372 1-595): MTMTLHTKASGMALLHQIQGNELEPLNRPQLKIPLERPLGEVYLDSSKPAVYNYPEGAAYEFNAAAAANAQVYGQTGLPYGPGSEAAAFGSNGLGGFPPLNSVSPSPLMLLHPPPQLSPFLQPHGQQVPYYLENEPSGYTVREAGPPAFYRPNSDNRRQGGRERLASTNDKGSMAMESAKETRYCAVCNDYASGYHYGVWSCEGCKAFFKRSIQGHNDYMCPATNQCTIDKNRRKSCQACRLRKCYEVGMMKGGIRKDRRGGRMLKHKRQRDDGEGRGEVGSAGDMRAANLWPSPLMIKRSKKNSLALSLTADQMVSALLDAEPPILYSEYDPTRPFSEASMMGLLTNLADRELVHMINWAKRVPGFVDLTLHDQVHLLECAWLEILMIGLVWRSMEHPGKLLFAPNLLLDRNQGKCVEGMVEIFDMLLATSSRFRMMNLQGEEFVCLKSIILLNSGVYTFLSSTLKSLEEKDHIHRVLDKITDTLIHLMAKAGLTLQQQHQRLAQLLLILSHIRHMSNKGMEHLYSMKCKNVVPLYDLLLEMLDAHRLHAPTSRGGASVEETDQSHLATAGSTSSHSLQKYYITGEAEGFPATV
Assay: ER degradation activity in MCF-7 cells (Western blot, grayscale intensity)
Assay type: cell-based
Conditions: 6 hours treatment, 1 nM to 100 nM, concentration required to degrade 50% of the target protein
Description: ERα-positive human breast cancer cells MCF-7 (ATCC, HTB-22) were cultured with EMEM medium (ATCC, catalog number 30-2003) containing 10% fetal bovine serum (Thermo Fisher, catalog number 10099141) and 10 µg/mL bovine insulin in 25 cm^2 or 75 cm^2 plastic tissue culture flasks in a 37 °C incubator with 5% CO2. The cells were passaged 2 to 3 times per week. MCF-7 cells were seeded in 6-well plate at 1×10^6 cells/well with 1.8 mL culture medium per well, and cultured in a 37 °C incubator with 95% air and 5% CO2. After 24 hours, the test compounds were added: the compounds were serially diluted 10-fold in DMSO starting from 10 mM (dissolved in DMSO) to prepare gradient stock solutions. A complete culture medium containing 1% DMSO was prepared for further dilution, temporarily named as the "dilution buffer." Working solutions were prepared by diluting each stock solution with 99 times the volume of dilution buffer, that is, by adding 1 µL of the 10 mM stock solution to 99 µL of the dilution buffer and mixing thoroughly.
Finally, […] of the working solution was added to the cell-seeded culture plate. The final concentration of DMSO in the cell culture medium was 0.2%, and the final concentration of the test compounds ranged from 1 nM to 100 nM. The cells were then incubated at 37 °C for 6 hours.
The culture medium was removed, and the cells were washed twice with ice cold PBS. 1 mL of PBS was added to each well, and the cells were collected into EP tubes using a cell scraper, and centrifuged at 4 °C, 4000 rpm for 5 minutes. PBS was aspirated. Total protein was extracted using the Minute™ Mammalian Tissue/Cell Total Protein Extraction Reagent. The protein concentration was measured using the BCA protein assay kit. 30 µg of protein was taken and mixed with 5× SDS-PAGE loading buffer, boiled for 10 minutes, and cooled. The samples were loaded into wells of a precast gel, with constant voltage at 80 V for 30 minutes, and then the voltage was changed to 120 V after the samples entered the resolving gel. The "sandwich" (sponge - filter paper - gel - membrane - filter paper - sponge) was assembled for Bio-Rad's Transblot. Transfer was performed for 1 hour at 0.3 amp at 4 °C. The sample was blocked with 5% fat-free milk for 1 hour, and incubated with Estrogen Receptor alpha Antibody (Thermo Fisher, catalog number MA5-14104) overnight at 4 °C. The membrane was washed with TBST to remove non-specifically bound antibodies, and then incubated with goat anti-mouse IgG-HRP secondary antibody for 1 hour at room temperature, and was visualized using ECL. The protein degradation level was calculated by measuring the grayscale intensity.
The DC50 values (i.e., the concentration of the test compounds required to degrade 50% of the target protein) were calculated and shown in Table 1. A corresponds to a DC50 value below 10 nM, B corresponds to a DC50 value greater than 10 nM and less than 100 nM, and C corresponds to DC50 values greater than 100 nM. Table 1. The DC50 values of exemplary compounds in MCF-7 cells

Row | SMILES | DC50
1 | CC1(C)CC(=C(c2ccc(N3CCC(CN4CCN(c5ccc(F)c(NC6CCC(=O)NC6=O)c5)CC4)CC3)nc2)c2ccc3[nH]nc(F)c3c2)CC(C)(C)O1 (centres unmarked) [Compound 83] | < 0.01 µM
2 | CC1(C)CC(=C(c2ccc(N3CC4(CN(C(=O)CN5CCC(c6ccc(NC7CCC(=O)NC7=O)cc6F)CC5)C4)C3)nc2)c2ccc3[nH]nc(F)c3c2)CC(C)(C)O1 (centres unmarked) [Compound 84] | > 0.1 µM
3 | CC1(C)CC(=C(c2ccc(OCCN3CCN(c4ccc5c(c4)C(=O)N(C4CCC(=O)NC4=O)C5=O)CC3)cc2)c2ccc3[nH]nc(F)c3c2)CC(C)(C)O1 (centres unmarked) [Compound 16] | > 0.1 µM
4 | CC1(C)CC(=C(c2ccc3[nH]nc(F)c3c2)c2c(F)cc(OC3CN(C4CN(c5ccc6c(c5)C(=O)N(C5CCC(=O)NC5=O)C6=O)C4)C3)cc2F)CC(C)(C)O1 (centres unmarked) [Compound 14] | > 0.1 µM
5 | CC1(C)CC(=C(c2ccc(N3CCC(N4CCN(c5ccc6c(c5)CN(C5CCC(=O)NC5=O)C6=O)CC4)CC3)cc2)c2ccc3[nH]ncc3c2)CC(C)(C)O1 (centres unmarked) [Compound 58] | > 0.1 µM
6 | CC1(C)CC(=C(c2ccc(N3CCN(C4CCN(c5ccc(NC6CCC(=O)NC6=O)cc5)CC4)CC3)cc2)c2ccc3[nH]nc(F)c3c2)CC(C)(C)O1 (centres unmarked) [Compound 91] | > 0.1 µM
7 | CC1(C)CC(=C(c2ccc(N3CCN(C4CCN(c5ccc6c(c5)CN(C5CCC(=O)NC5=O)C6=O)CC4)CC3)nc2)c2ccc3[nH]nc(F)c3c2)CC(C)(C)O1 (centres unmarked) [Compound 67] | > 0.1 µM
8 | CC1(C)CC(=C(c2ccc3[nH]nc(F)c3c2)c2c(F)cc(N3CC(N4CCN(c5ccc6c(c5)C(=O)N(C5CCC(=O)NC5=O)C6=O)CC4)C3)cc2F)CC(C)(C)O1 (centres unmarked) [Compound 29] | > 0.1 µM
9 | CC1(C)CC(=C(c2ccc(N3CCN(C4CN(c5ccc6c(c5)C(=O)N(C5CCC(=O)NC5=O)C6=O)C4)CC3)nc2)c2ccc3[nH]nc(F)c3c2)CC(C)(C)O1 (centres unmarked) [Compound 106] | > 0.1 µM
10 | CC1(C)CC(=C(c2ccc(N3CCN(CC4CCN(c5ccc6c(c5)C(=O)N(C5CCC(=O)NC5=O)C6=O)CC4)CC3)nc2)c2ccc3[nH]nc(F)c3c2)CC(C)(C)O1 (centres unmarked) [Compound 4] | > 0.1 µM
11 | CC1(C)CC(=C(c2ccc(N3CCC(N4CCN(c5ccc(NC6CCC(=O)NC6=O)cc5)CC4)CC3)cc2)c2ccc3[nH]nc(F)c3c2)CC(C)(C)O1 (centres unmarked) [Compound 86] | > 0.1 µM
12 | CC1(C)CC(=C(c2ccc(N3CCN(C4CCN(c5ccc(N6CCC(=O)NC6=O)cc5)CC4)CC3)cc2)c2ccc3[nH]nc(F)c3c2)CC(C)(C)O1 [Compound 81] | > 0.1 µM
13 | CC1(C)CC(=C(c2ccc(N3CCC4(CC3)CN(C3CCN(c5ccc6c(c5)CN([C@H]5CCC(=O)NC5=O)C6=O)CC3)C4)nc2)c2ccc3[nH]nc(F)c3c2)CC(C)(C)O1 [Compound 141] | < 0.01 µM
14 | Cn1c(=O)n(C2CCC(=O)NC2=O)c2cccc(C3CCN(CC4CCN(c5ccc(C(=C6CC(C)(C)OC(C)(C)C6)c6ccc7[nH]nc(F)c7c6)cn5)CC4)CC3)c21 (centres unmarked) [Compound 99] | 0.01 to 0.1 µM
15 | CC1(C)CC(=C(c2ccc(N3CCC(CN4CCN(c5cccc(NC6CCC(=O)NC6=O)c5)CC4)CC3)cc2)c2ccc3[nH]nc(F)c3c2)CC(C)(C)O1 (centres unmarked) [Compound 107] | > 0.1 µM
16 | CC1(C)CC(=C(c2ccc(N3CC(N4CCN(c5ccc6c(c5)C(=O)N(C5CCC(=O)NC5=O)C6=O)CC4)C3)cc2)c2ccc3[nH]nc(F)c3c2)CC(C)(C)O1 (centres unmarked) [Compound 13] | > 0.1 µM
17 | CC1(C)CC(=C(c2ccc(N)nc2)c2ccc(N3CCC(CN4CCN(c5ccc6c(c5)CN(C5CCC(=O)NC5=O)C6=O)CC4)CC3)nc2)CC(C)(C)O1 (centres unmarked) [Compound 116] | > 0.1 µM
18 | CC1(C)CC(=C(c2ccc(N3CC4(CCN(C(=O)CN5Cc6cc7c(cc6C5)C(=O)N(C5CCC(=O)NC5=O)C7)C4)C3)nc2)c2ccc3[nH]nc(F)c3c2)CC(C)(C)O1 (centres unmarked) [Compound 71] | > 0.1 µM
19 | CC1(C)CC(=C(c2ccc(OC3CN(CC4CCN(c5ccc6c(c5)C(=O)N(C5CCC(=O)NC5=O)C6=O)CC4)C3)cc2)c2ccc3[nH]nc(F)c3c2)CC(C)(C)O1 (centres unmarked) [Compound 8] | > 0.1 µM
20 | CC1(C)CC(=C(c2ccc(N3CCC(N4CCN(c5ccc6c(c5)C(=O)N(C5CCC(=O)NC5=O)C6=O)CC4)CC3)nc2)c2ccc3[nH]nc(F)c3c2)CC(C)(C)O1 (centres unmarked) [Compound 104] | > 0.1 µM
21 | CC1(C)CC(=C(c2ccc3[nH]nc(F)c3c2)c2c(F)cc(N3CCN(C4CN(c5ccc6c(c5)C(=O)N(C5CCC(=O)NC5=O)C6=O)C4)CC3)cc2F)CC(C)(C)O1 (centres unmarked) [Compound 3] | > 0.1 µM

The remaining lines, values ahead:

Row | DC50 | SMILES
22 | 0.01 to 0.1 µM | CC1(C)CC(=C(c2ccc(N3CCC(N4CCN(c5ccc6c(c5)CN([C@@H]5CCC(=O)NC5=O)C6=O)CC4)CC3)cc2)c2ccc3[nH]nc(F)c3c2)CC(C)(C)O1 [Compound 134]
23 | > 0.1 µM | Cn1c(=O)n(C2CCC(=O)NC2=O)c2cccc(C#CCOC3CCN(c4ccc(C(=C5CC(C)(C)OC(C)(C)C5)c5ccc6[nH]nc(F)c6c5)cn4)CC3)c21 (centres unmarked) [Compound 100]
24 | 0.01 to 0.1 µM | CC1(C)CC(=C(c2ccc(N3CC(CN4CCN(c5ccc6c(c5)C(=O)N(C5CCC(=O)NC5=O)C6=O)CC4)C3)nc2)c2ccc3[nH]nc(F)c3c2)CC(C)(C)O1 (centres unmarked) [Compound 27]
25 | < 0.01 µM | CC1(C)CC(=C(c2ccc3[nH]nc(F)c3c2)c2c(F)cc(OC3CN(CC4CN(c5ccc6c(c5)C(=O)N(C5CCC(=O)NC5=O)C6=O)C4)C3)cc2F)CC(C)(C)O1 (centres unmarked) [Compound 26]
26 | 0.01 to 0.1 µM | CC1(C)CC(=C(c2ccc(N3CCC(F)(CN4CCN(c5ccc6c(c5)CN(C5CCC(=O)NC5=O)C6=O)CC4)CC3)nc2)c2ccc3[nH]nc(F)c3c2)CC(C)(C)O1 (centres unmarked) [Compound 59]
27 | < 0.01 µM | CC1(C)CC(=C(c2ccc(N3CCC(CN4CCC(N5Cc6cc7c(cc6C5)C(=O)N(C5CCC(=O)NC5=O)C7)CC4)CC3)nc2)c2ccc3[nH]nc(F)c3c2)CC(C)(C)O1 (centres unmarked) [Compound 69]
28 | 0.01 to 0.1 µM | CC1(C)CC(=C(c2ccc(N3CCC(CN4CCN(c5ccc6c(c5)CN(C5CCC(=O)NC5=O)C6=O)CC4)CC3)cc2)c2ccc3[nH]nc(F)c3c2)CC(C)(C)O1 (centres unmarked) [Compound 41]
29 | 0.01 to 0.1 µM | CN(CC1CCN(c2ccc(C(=C3CC(C)(C)OC(C)(C)C3)c3ccc4[nH]nc(F)c4c3)cn2)CC1)C1CCN(c2ccc3c(c2)CN(C2CCC(=O)NC2=O)C3=O)CC1 (centres unmarked) [Compound 45]
30 | 0.01 to 0.1 µM | CC1(C)CC(=C(c2ccc(N3CCN(C4CCN(c5ccc6c(c5)CN(C5CCC(=O)NC5=O)C6=O)CC4)CC3)cc2)c2ccc3[nH]ncc3c2)CC(C)(C)O1 (centres unmarked) [Compound 66]
31 | < 0.01 µM | CC1(C)CC(=C(c2ccc(N3CCC(CN4CCN(c5ccc6c(c5)C(=O)N([C@H]5CCC(=O)NC5=O)C6=O)CC4)CC3)cc2)c2ccc3[nH]ncc3c2)CC(C)(C)O1 [Compound 131]
32 | < 0.01 µM | CC1(C)CC(=C(c2ccc3[nH]nc(F)c3c2)c2c(F)cc(N3CCC(N4CCN(c5ccc6c(c5)C(=O)N(C5CCC(=O)NC5=O)C6=O)CC4)CC3)cc2F)CC(C)(C)O1 (centres unmarked) [Compound 11]
33 | 0.01 to 0.1 µM | CC1(C)CC(=C(c2ccc(N3CCC4(CC3)CN(C(=O)CN3Cc5cc6c(cc5C3)C(=O)N(C3CCC(=O)NC3=O)C6)C4)nc2)c2ccc3[nH]nc(F)c3c2)CC(C)(C)O1 (centres unmarked) [Compound 70]
34 | < 0.01 µM | CC1(C)CC(=C(c2ccc(N3CCC(CN4CCN(c5ccc6c(c5)C(=O)N([C@@H]5CCC(=O)NC5=O)C6=O)CC4)CC3)cc2)c2ccc3[nH]ncc3c2)CC(C)(C)O1 [Compound 130]
35 | 0.01 to 0.1 µM | CN(CC1CCN(c2ccc(C(=C3CC(C)(C)OC(C)(C)C3)c3ccc4[nH]nc(F)c4c3)cn2)CC1)C1CCN(c2cccn3c(N4CCC(=O)NC4=O)cnc23)CC1 [Compound 97]
